Experimental data: patent EP0318620A1, “Herbicidal sulfonamides” (E.I. DU PONT DE NEMOURS AND COMPANY, priority 1987, dated 1989)

Legend:
[1] = test system: johnsongrass; assay: Test B pan test in Sassafras sandy loam soil, pre- and postemergence; type: in vivo, Sorghum halepense; settings: scale 0 to 100
Source text: (§1) Three round pans (25 cm diameter by 12.5 cm deep) were filled with Sassafras sandy loam soil. One pan was planted with nutsedge (Cyperus rotundus) tubers, crabgrass (Digitaria sanguinalis), sicklepod (Cassia obtusifolia), jimsonweed (Datura stramonium), velvetleaf (Abutilon theophrasti), lambsquarters (Chenopodim album), rice (Oryza sativa) and teaweed (Sida spinosa). The second pot was planted with green foxtail (Setaria viridis), cocklebur (Xantium pensyivanicum), morningglory (lpomoea hederacea), cotton (Gossypium hirsutum), johnsongrass (Sorghum halepense), barnyardgrass (Echinochloa crusgalli), corn (Zea mays), soybean (Glycine max) and giant foxtail (Setaria faberi). The third pot was planted with wheat (Triticum aestivum), barley (Hordeum vulgare), wild buckwheat (Polgonum convolvulus L.), cheatgrass (Bromus secalinus L.), sugarbeet (Beta vulgaris), wild oats (Avena fatua), viola (Viola arvensis), blackgrass (Alopecurus myosuroides), and rape (Brassica napus). The plants were grown for approximately fourteen days, then sprayed postemergence with the chemicals dissolved in a non-phytotoxic solvent.
(§2) Three round pans (25 cm diameter by 12.5 cm deep) were filled with Sassafras sandy loam soil. One pan was planted with nutsedge tubers, crabgrass, sicklepod, jimsonweed, velvetleaf, lambsquarters, rice and teaweed. The second pot was planted with green foxtail, cocklebur, morningglory, cottom, johnsongrass, . barnyardgrass, corn, soybean and giant foxtail. The third pot was planted with wheat, barley, wild buckwheat, cheatgrass, sugarbeet, wild oat, viola, blackgrass and rape. The three pans were sprayed preemer gence with the chemicals dissolved in a non-phytotoxic solvent.
(§3) Treated plants and controls were maintained in the greenhouse for 24 days, then all rated plants were compared to controls and visually rated for plant response.
(§4) A dash (-) response means no test.

[2] = test system: jimsonweed; assay: as above; type: in vivo, Datura stramonium; settings: scale 0 to 100
Source text: as §1, §2, §3, §4

[3] = test system: velvetleaf; assay: as above; type: in vivo, Abutilon theophrasti; settings: scale 0 to 100
Source text: as §1, §2, §3, §4

[4] = test system: wheat; assay: as above; type: in vivo, Triticum aestivum; settings: scale 0 to 100
Source text: as §1, §2, §3, §4

[5] = test system: soybean; assay: as above; type: in vivo, Glycine max; settings: scale 0 to 100
Source text: as §1, §2, §3, §4

[6] = test system: giant foxtail; assay: as above; type: in vivo, Setaria faberi; settings: scale 0 to 100
Source text: as §1, §2, §3, §4

[7] = test system: barnyardgrass; assay: as above; type: in vivo, Echinochloa crusgalli; settings: scale 0 to 100
Source text: as §1, §2, §3, §4

[8] = test system: wild oats; assay: Test A greenhouse herbicide test, pre- and postemergence; type: in vivo, Avena fatua; settings: PREEMERGENCE; RATE 0.01 KG/HA; rated after sixteen days
Source text: (§5) Seeds of crabgrass (Digitaria spp.), barnyardgrass (Echinochloa crusgalli), cheatgrass (Bromus Secalinus), giant foxtail (Setaria faberii), wild oats (Avena fatua), velvetleaf (Abutilon theophrasti), morningglory (Ipomoea spp. , cocklebur (Xanthium pensylvanicum). sorghum, corn, barley, soybean, sugarbeet, cotton, rice, wheat and purple nutsedge (Cyperus rotundus) tubers were planted and treated preemergence with the test chemicals dissolved in a non-phytotoxic solvent. At the same time, these crop and weed species were treated with a soil/foliage application. At the time of treatment, the plants ranged in height from 2 to 18 cm. Treated plants and controls were maintained in a greenhouse for sixteen days, after which all species were compared to controls and visually rated for response to treatment. The ratings, summarized in Table A, are based on a numerical scale extending from 0 = no injury, to 10 = complete kill. The accompanying descriptive symbols have the following meanings: • B = burn; • C = chlorosis/necrosis; • D = defoliation; • E = emergence inhibition; • G = growth retardation; • H = formative effect; • U = unusual pigmentation; • X = axillary stimulation; • S = albinism; and • 6Y = abscised buds or flowers.

[9] = test system: cocklebur; assay: as above; type: in vivo, Xanthium pensylvanicum; settings: POSTEMERGENCE, rated after sixteen days
Source text: as §5

[10] = test system: sugarbeet; assay: Test B pan test in Sassafras sandy loam soil, pre- and postemergence; type: in vivo, Beta vulgaris; settings: scale 0 to 100
Source text: as §1, §2, §3, §4

[11] = test system: cotton; assay: as above; type: in vivo, Gossypium hirsutum; settings: scale 0 to 100
Source text: as §1, §2, §3, §4

[12] = test system: barnyardgrass; assay: Test A greenhouse herbicide test, pre- and postemergence; type: in vivo, Echinochloa crusgalli; settings: rated after sixteen days
Source text: as §5

[13] = test system: wild buckwheat; assay: Test B pan test in Sassafras sandy loam soil, pre- and postemergence; type: in vivo, Polgonum convolvulus L.; settings: scale 0 to 100
Source text: as §1, §2, §3, §4

[14] = test system: sicklepod; assay: as above; type: in vivo, Cassia obtusifolia; settings: scale 0 to 100
Source text: as §1, §2, §3, §4

CCOC(=O)c1c(CC#N)cccc1S(=O)(=O)NC(=O)Nc1nc(OC)cc(OC)n1 [Compound 3, 2-(cyanomethyl)-6 [[(4,6-dimethoxypyrimidin-2-yl)-aminocarbonyl]aminosulfonyl]benzoic acid, ethyl ester]
3G: WILD OATS visual rating of response to treatment [8]
60: JOHNSONGRASS response rating ([1]; POSTEMERGENCE, RATE 0004 G/HA) | JIMSONWEED response rating ([2]; POSTEMERGENCE, RATE 0004 G/HA) | GIANT FOXTAIL response rating ([6]; PREEMERGENCE, RATE 0016 G/HA) | WILD BUCKWHEAT response rating ([13]; POSTEMERGENCE, RATE 0004 G/HA)
100: JOHNSONGRASS response rating ([1]; POSTEMERGENCE, RATE 0016 G/HA) | JOHNSONGRASS response rating ([1]; POSTEMERGENCE, RATE 0062 G/HA) | JIMSONWEED response rating ([2]; POSTEMERGENCE, RATE 0016 G/HA) | JIMSONWEED response rating ([2]; POSTEMERGENCE, RATE 0062 G/HA) | VELVETLEAF response rating ([3]; POSTEMERGENCE, RATE 0004 G/HA) | VELVETLEAF response rating ([3]; POSTEMERGENCE, RATE 0016 G/HA) | VELVETLEAF response rating ([3]; POSTEMERGENCE, RATE 0062 G/HA) | WHEAT response rating ([4]; POSTEMERGENCE, RATE 0062 G/HA) | SOYBEAN response rating ([5]; POSTEMERGENCE, RATE 0004 G/HA) | SOYBEAN response rating ([5]; POSTEMERGENCE, RATE 0016 G/HA) | SOYBEAN response rating ([5]; POSTEMERGENCE, RATE 0062 G/HA) | GIANT FOXTAIL response rating ([6]; POSTEMERGENCE, RATE 0004 G/HA) | GIANT FOXTAIL response rating ([6]; POSTEMERGENCE, RATE 0016 G/HA) | GIANT FOXTAIL response rating ([6]; POSTEMERGENCE, RATE 0062 G/HA) | GIANT FOXTAIL response rating ([6]; PREEMERGENCE, RATE 0062 G/HA) | BARNYARD GRASS response rating ([7]; POSTEMERGENCE, RATE 0004 G/HA) | BARNYARD GRASS response rating ([7]; POSTEMERGENCE, RATE 0016 G/HA) | BARNYARD GRASS response rating ([7]; POSTEMERGENCE, RATE 0062 G/HA) | SUGAR BEETS response rating ([10]; POSTEMERGENCE, RATE 0004 G/HA) | SUGAR BEETS response rating ([10]; POSTEMERGENCE, RATE 0016 G/HA) | SUGAR BEETS response rating ([10]; POSTEMERGENCE, RATE 0062 G/HA) | COTTON response rating ([11]; POSTEMERGENCE, RATE 0004 G/HA) | COTTON response rating ([11]; POSTEMERGENCE, RATE 0016 G/HA) | COTTON response rating ([11]; POSTEMERGENCE, RATE 0062 G/HA) | WILD BUCKWHEAT response rating ([13]; POSTEMERGENCE, RATE 0062 G/HA)
80: JOHNSONGRASS response rating ([1]; PREEMERGENCE, RATE 0062 G/HA) | BARNYARD GRASS response rating ([7]; PREEMERGENCE, RATE 0062 G/HA)
30: JOHNSONGRASS response rating ([1]; POSTEMERGENCE, RATE 0001 G/HA) | JOHNSONGRASS response rating ([1]; PREEMERGENCE, RATE 0016 G/HA) | JIMSONWEED response rating ([2]; POSTEMERGENCE, RATE 0001 G/HA) | JIMSONWEED response rating ([2]; PREEMERGENCE, RATE 0062 G/HA) | VELVETLEAF response rating ([3]; PREEMERGENCE, RATE 0016 G/HA) | WHEAT response rating ([4]; POSTEMERGENCE, RATE 0001 G/HA) | WHEAT response rating ([4]; PREEMERGENCE, RATE 0016 G/HA) | GIANT FOXTAIL response rating ([6]; PREEMERGENCE, RATE 0004 G/HA) | BARNYARD GRASS response rating ([7]; PREEMERGENCE, RATE 0004 G/HA) | COTTON response rating ([11]; POSTEMERGENCE, RATE 0001 G/HA) | COTTON response rating ([11]; PREEMERGENCE, RATE 0062 G/HA) | WILD BUCKWHEAT response rating ([13]; POSTEMERGENCE, RATE 0001 G/HA) | CASSIA response rating ([14]; POSTEMERGENCE, RATE 0001 G/HA)
40: SOYBEAN response rating ([5]; PREEMERGENCE, RATE 0062 G/HA)
50: VELVETLEAF response rating ([3]; PREEMERGENCE, RATE 0062 G/HA) | WHEAT response rating ([4]; POSTEMERGENCE, RATE 0004 G/HA) | BARNYARD GRASS response rating ([7]; PREEMERGENCE, RATE 0016 G/HA) | SUGAR BEETS response rating ([10]; PREEMERGENCE, RATE 0004 G/HA) | WILD BUCKWHEAT response rating ([13]; PREEMERGENCE, RATE 0004 G/HA) | CASSIA response rating ([14]; POSTEMERGENCE, RATE 0004 G/HA)
90: SOYBEAN response rating ([5]; POSTEMERGENCE, RATE 0001 G/HA) | GIANT FOXTAIL response rating ([6]; POSTEMERGENCE, RATE 0001 G/HA) | SUGAR BEETS response rating ([10]; PREEMERGENCE, RATE 0062 G/HA) | WILD BUCKWHEAT response rating ([13]; POSTEMERGENCE, RATE 0016 G/HA) | WILD BUCKWHEAT response rating ([13]; PREEMERGENCE, RATE 0062 G/HA) | CASSIA response rating ([14]; POSTEMERGENCE, RATE 0062 G/HA)
20: SOYBEAN response rating ([5]; PREEMERGENCE, RATE 0016 G/HA)
0: JOHNSONGRASS response rating ([1]; PREEMERGENCE, RATE 0004 G/HA) | JIMSONWEED response rating ([2]; PREEMERGENCE, RATE 0004 G/HA) | JIMSONWEED response rating ([2]; PREEMERGENCE, RATE 0016 G/HA) | VELVETLEAF response rating ([3]; PREEMERGENCE, RATE 0004 G/HA) | WHEAT response rating ([4]; PREEMERGENCE, RATE 0004 G/HA) | SOYBEAN response rating ([5]; PREEMERGENCE, RATE 0004 G/HA) | COTTON response rating ([11]; PREEMERGENCE, RATE 0004 G/HA) | COTTON response rating ([11]; PREEMERGENCE, RATE 0016 G/HA) | CASSIA response rating ([14]; PREEMERGENCE, RATE 0004 G/HA) | CASSIA response rating ([14]; PREEMERGENCE, RATE 0016 G/HA) | CASSIA response rating ([14]; PREEMERGENCE, RATE 0062 G/HA)
70: VELVETLEAF response rating ([3]; POSTEMERGENCE, RATE 0001 G/HA) | WHEAT response rating ([4]; POSTEMERGENCE, RATE 0016 G/HA) | WHEAT response rating ([4]; PREEMERGENCE, RATE 0062 G/HA) | BARNYARD GRASS response rating ([7]; POSTEMERGENCE, RATE 0001 G/HA) | SUGAR BEETS response rating ([10]; POSTEMERGENCE, RATE 0001 G/HA) | SUGAR BEETS response rating ([10]; PREEMERGENCE, RATE 0016 G/HA) | WILD BUCKWHEAT response rating ([13]; PREEMERGENCE, RATE 0016 G/HA) | CASSIA response rating ([14]; POSTEMERGENCE, RATE 0016 G/HA)
9C: BARNYARD GRASS visual rating of response to treatment ([12]; POSTEMERGENCE, RATE 0.01 KG/HA)
10C: COCKLEBUR visual rating of response to treatment ([9]; RATE 0.01 KG/HA) | COCKLEBUR visual rating of response to treatment ([9]; RATE 0.05 KG/HA) | BARNYARD GRASS visual rating of response to treatment ([12]; POSTEMERGENCE, RATE 0.05 KG/HA)
2G: BARNYARD GRASS visual rating of response to treatment ([12]; PREEMERGENCE, RATE 0.01 KG/HA)
